This is an account of results in US11111237B2, “Bicyclic compound and use thereof” (SK BIOPHARMACEUTICALS CO., LTD., priority 2019, dated 2021).

The term pIC50 denotes the negative decadic logarithm of the IC50, by convention in mol/L. Higher therefore signals a low IC50.

The structures appear in SMILES notation. pIC50: −log10 of the molar value. Counter-ions that a name gives are not always drawn.

Chain of PRMT5-MEP50 enzyme complex (O14744 2-637): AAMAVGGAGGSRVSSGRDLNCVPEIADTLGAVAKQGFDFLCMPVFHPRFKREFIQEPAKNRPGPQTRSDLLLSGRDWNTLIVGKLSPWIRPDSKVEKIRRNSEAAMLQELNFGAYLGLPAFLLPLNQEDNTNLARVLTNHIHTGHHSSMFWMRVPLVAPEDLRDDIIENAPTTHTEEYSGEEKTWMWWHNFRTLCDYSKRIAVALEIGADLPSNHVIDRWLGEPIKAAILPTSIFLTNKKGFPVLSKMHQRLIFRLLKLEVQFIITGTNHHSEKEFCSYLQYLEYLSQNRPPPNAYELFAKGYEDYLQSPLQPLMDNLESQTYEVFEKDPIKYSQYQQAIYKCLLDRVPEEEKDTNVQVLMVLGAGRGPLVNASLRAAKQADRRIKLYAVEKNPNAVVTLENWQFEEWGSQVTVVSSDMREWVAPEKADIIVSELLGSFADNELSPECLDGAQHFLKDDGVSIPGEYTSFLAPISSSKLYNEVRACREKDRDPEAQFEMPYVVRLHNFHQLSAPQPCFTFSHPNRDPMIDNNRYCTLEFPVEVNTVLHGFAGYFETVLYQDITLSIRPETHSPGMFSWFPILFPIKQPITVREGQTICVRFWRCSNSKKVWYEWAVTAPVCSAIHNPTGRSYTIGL
Chain of PRMT5-MEP50 enzyme complex (Q9BQA1 2-342 partner): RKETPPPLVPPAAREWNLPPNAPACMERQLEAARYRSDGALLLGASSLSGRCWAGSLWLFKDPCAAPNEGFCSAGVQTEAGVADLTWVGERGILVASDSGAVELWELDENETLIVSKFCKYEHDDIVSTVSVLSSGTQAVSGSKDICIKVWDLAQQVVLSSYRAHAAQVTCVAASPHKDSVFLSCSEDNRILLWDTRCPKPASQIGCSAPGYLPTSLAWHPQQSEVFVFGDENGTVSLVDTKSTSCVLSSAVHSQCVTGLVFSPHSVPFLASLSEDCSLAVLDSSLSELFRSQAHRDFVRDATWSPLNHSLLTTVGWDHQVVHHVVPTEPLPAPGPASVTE

The target of this experiment is PRMT5-MEP50 enzyme complex (Homo sapiens (Human), UniProt O14744). Briefly: PRMT5 enzyme activity in vitro assay (methylation of histone H4R3, ELISA absorbance at 450 nm). The class given is biochemical. The conditions noted are these: SAM, histone H4 peptide, room temperature 2 hours, 8 points from 10 μM to 0.128 nM. A digest of the protocol:
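IC50 was derived from ELISA absorbance at 450 nm, using primary and HRP antibodies against H4R3 methylation on immobilised histone H4 peptide (residues 1-20). Compounds (10 μM to 0.128 nM, 8 points, 1:5) were incubated 2 h at room temperature with the PRMT5-MEP50 complex and SAM, diluted to 5 μg/mL and 2 μM respectively.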
On to `CC1CN(Cc2ccc3c(c2)OCCN(C[C@H](O)CN2CCc4ccccc4C2)C3=O)CCO1` (stereo partly drawn) [Example 30, 4-[(2R)-3-(3,4-dihydro-1H-isoquinolin-2-yl)-2-hydroxy-propyl]-8-[(2-methylmorpholin-4-yl)methyl]-2,3-dihydro-1,4-benzoxazepin-5-one], for which the pIC50 is 7.00 to 9.00.
With `O=C1c2ccc(OC3CCN(CCF)CC3)cc2OCCN1C[C@H](O)CN1CCc2ccccc2C1` [Example 163, 4-[(2R)-3-(3,4-dihydro-1H-isoquinolin-2-yl)-2-hydroxy-propyl]-8-[[1-(2-fluoroethyl)-4-piperidyl]oxy]-2,3-dihydro-1,4-benzoxazepin-5-one] the figure was 6.00 to 7.00; with `O=C1c2ccc(OC3CCN(C4CCC4)CC3)cc2OCCN1C[C@H](O)CN1CCc2ccccc2C1` [Example 91, 8-[(1-cyclobutyl-4-piperidyl)oxy]-4-[(2R)-3-(3,4-dihydro-1H-isoquinolin-2-yl)-2-hydroxy-propyl]-2,3-dihydro-1,4-benzoxazepin-5-one], 6.00 to 7.00.
In turn, `CC(=O)N1CCC(COc2ccc3c(c2)OCCN(C[C@H](O)CN2CCc4ccccc4C2)C3=O)CC1` [Example 70, 8-[(1-acetyl-4-piperidyl)methoxy]-4-[(2R)-3-(3,4-dihydro-1H-isoquinolin-2-yl)-2-hydroxy-propyl]-2,3-dihydro-1,4-benzoxazepin-5-one] showed a pIC50 of 6.00 to 7.00.
As to `O=C1c2ccc(CN3CCC(O)CC3)cc2OCCN1C[C@H](O)CN1CCc2ccccc2C1` [Example 45, 4-[(2R)-3-(3,4-dihydro-1H-isoquinolin-2-yl)-2-hydroxy-propyl]-8-[(4-hydroxy-1-piperidyl)methyl]-2,3-dihydro-1,4-benzoxazepin-5-one], the pIC50 was 7.00 to 9.00.
Next, `CCC(=O)N1CC(Oc2ccc3c(c2)OCCN(C[C@H](O)CN2CCc4ccccc4C2)C3=O)C1` [Example 84, 4-[(2R)-3-(3,4-dihydro-1H-isoquinolin-2-yl)-2-hydroxy-propyl]-8-(1-propanoylazetidin-3-yl)oxy-2,3-dihydro-1,4-benzoxazepin-5-one]: 6.00 to 7.00; `CN1CCN(C[C@H](O)CN2CCc3ccccc3C2)C(=O)c2ccc(OC3CCN(C4CCC4)CC3)cc21` [Example 127, 8-[(1-cyclobutyl-4-piperidyl)oxy]-4-[(2R)-3-(3,4-dihydro-1H-isoquinolin-2-yl)-2-hydroxy-propyl]-1-methyl-2,3-dihydro-1,4-benzodiazepin-5-one]: 7.00 to 9.00; `O=C1c2c(F)cc(CN3CCOCC3)cc2OCCN1C[C@H](O)CN1CCc2ccccc2C1` [Example 108, 4-[(2R)-3-(3,4-dihydro-1H-isoquinolin-2-yl)-2-hydroxy-propyl]-6-fluoro-8-(morpholinomethyl)-2,3-dihydro-1,4-benzoxazepin-5-one]: 5.00 to 6.00.
Next, `O=C1c2ccc(OC3CCOCC3)cc2OCCN1C[C@H](O)CN1CCc2ccccc2C1` [Example 64, 4-[(2R)-3-(3,4-dihydro-1H-isoquinolin-2-yl)-2-hydroxy-propyl]-8-tetrahydropyran-4-yloxy-2,3-dihydro-1,4-benzoxazepin-5-one]: 7.00 to 9.00; `CN1CCN(C[C@H](O)CN2CCc3ccccc3C2)C(=O)c2ccc(OCc3ccc(F)cn3)cc21` [Example 139, 4-[(2R)-3-(3,4-dihydro-1H-isoquinolin-2-yl)-2-hydroxy-propyl]-8-[(5-fluoro-2-pyridyl)methoxy]-1-methyl-2,3-dihydro-1,4-benzodiazepin-5-one]: 6.00 to 7.00; `CCN1CCCC(Oc2ccc3c(c2)OCCN(C[C@H](O)CN2CCc4ccccc4C2)C3=O)C1` (stereo partly drawn) [Example 69, 4-[(2R)-3-(3,4-dihydro-1H-isoquinolin-2-yl)-2-hydroxy-propyl]-8-[(1-ethyl-3-piperidyl)oxy]-2,3-dihydro-1,4-benzoxazepin-5-one]: 7.00 to 9.00.
With `O=C(c1ccc2c(c1)OCCN(C[C@H](O)CN1CCc3ccccc3C1)C2=O)N1CCC(F)CC1` [Example 184, 4-[(2R)-3-(3,4-dihydro-1H-isoquinolin-2-yl)-2-hydroxy-propyl]-8-(4-fluoropiperidine-1-carbonyl)-2,3-dihydro-1,4-benzoxazepin-5-one] the figure was 6.00 to 7.00.
`CC(=O)N1CCN(Cc2ccc3c(c2)OC(C)(C)CN(C[C@H](O)CN2CCc4ccccc4C2)C3=O)CC1` [Example 167, 8-[(4-acetylpiperazin-1-yl)methyl]-4-[(2R)-3-(3,4-dihydro-1H-isoquinolin-2-yl)-2-hydroxy-propyl]-2,2-dimethyl-3H-1,4-benzoxazepin-5-one] had a pIC50 of 6.00 to 7.00.
Take `CNCC#Cc1ccc2c(c1)OCCN(C[C@H](O)CN1CCc3ccccc3C1)C2=O` [Example 229, 4-[(2R)-3-(3,4-dihydro-1H-isoquinolin-2-yl)-2-hydroxy-propyl]-8-[3-(methylamino)pro-1-pynyl]-2,3-dihydro-1,4-benzoxazepin-5-one]: the pIC50 was 6.00 to 7.00.
With `CC(O)CN1CCC(Oc2ccc3c(n2)OC(C)(C)CN(C[C@H](O)CN2CCc4ccccc4C2)C3=O)CC1` (stereo partly drawn) [Example 248, 4-[(2R)-3-(3,4-dihydro-1H-isoquinolin-2-yl)-2-hydroxy-propyl]-8-[[1-(2-hydroxypropyl)-4-piperidyl]oxy]-2,2-dimethyl-3H-pyrido[3,2-f][1,4]oxazepin-5-one] the figure was 7.00 to 9.00.
On to `CN1CCN(Cc2ccc3c(c2)OCCN(C[C@H](O)CN2CCc4ccccc4C2)C3=O)CC1` [Example 54, 4-[(2R)-3-(3,4-dihydro-1H-isoquinolin-2-yl)-2-hydroxy-propyl]-8-[(4-methylpiperazin-1-yl)methyl]-2,3-dihydro-1,4-benzoxazepin-5-one], for which the pIC50 was 7.00 to 9.00.
Regarding `O=C(c1ccc2c(c1)OCCN(C[C@H](O)CN1CCc3ccccc3C1)C2=O)N1CCCC(C(F)(F)F)C1` (stereo partly drawn) [Example 185, 4-[(2R)-3-(3,4-dihydro-1H-isoquinolin-2-yl)-2-hydroxy-propyl]-8-[3-(trifluoromethyl)piperidine-1-carbonyl]-2,3-dihydro-1,4-benzoxazepin-5-one], the pIC50 was 6.00 to 7.00.
Next, `CC1(C)CN(C[C@H](O)CN2CCc3ccccc3C2)C(=O)c2ccc(C(=O)N3CC4CC3CO4)cc2O1` (stereo partly drawn) [Example 204, 4-[(2R)-3-(3,4-dihydro-1H-isoquinolin-2-yl)-2-hydroxy-propyl]-2,2-dimethyl-8-(2-oxa-5-azabicyclo[2.2.1]heptan-5-carbonyl)-3H-1,4-benzoxazepin-5-one]: 6.00 to 7.00; `CCN1CCC(Oc2ccc3c(c2)OC(C)(C)CN(C[C@H](O)CN2CCc4ccccc4C2)C3=O)CC1` [Example 110, 4-[(2R)-3-(3,4-dihydro-1H-isoquinolin-2-yl)-2-hydroxy-propyl]-8-[(1-ethyl-4-piperidyl)oxy]-2,2-dimethyl-3H-1,4-benzoxazepin-5-one]: 6.00 to 7.00; `CC(O)CN1CC[C@@H](Oc2ccc3c(c2)OCCN(C[C@H](O)CN2CCc4ccccc4C2)C3=O)[C@H](F)C1` (stereo partly drawn) [Example 254, 4-[(2R)-3-(3,4-dihydro-1H-isoquinolin-2-yl)-2-hydroxy-propyl]-8-[[(3R,4R)-3-fluoro-1-(2-hydroxypropyl)-4-piperidyl]oxy]-2-methyl-2,3-dihydro-1,4-benzoxazepin-5-one divalnet hydrochloride]: 6.00 to 7.00.
As to `CC(=O)N1CC=C(c2ccc3c(c2)OCCN(C[C@H](O)CN2CCc4ccccc4C2)C3=O)CC1` [Example 16, 8-(1-acetyl-3,6-dihydro-2H-pyridin-4-yl)-4-[(2R)-3-(3,4-dihydro-1H-isoquinolin-2-yl)-2-hydroxy-propyl]-2,3-dihydro-1,4-benzoxazepin-5-one], the pIC50 is 7.00 to 9.00.
Next, `CCN1C2CCC1CC(Oc1ccc3c(c1)OCCN(C[C@H](O)CN1CCc4ccccc4C1)C3=O)C2` (stereo partly drawn) [Example 171, 4-[(2R)-3-(3,4-dihydro-1H-isoquinolin-2-yl)-2-hydroxy-propyl]-8-[(8-ethyl-8-azabicyclo[3.2.1]octan-3-yl)oxy]-2,3-dihydro-1,4-benzoxazepin-5-one]: 7.00 to 9.00; `CC1(C)CN(C[C@H](O)CN2CCc3ccccc3C2)C(=O)c2ccc(C(=O)N3C4CCC3COC4)cc2O1` [Example 203, 4-[(2R)-3-(3,4-dihydro-1H-isoquinolin-2-yl)-2-hydroxy-propyl]-2,2-dimethyl-8-(3-oxa-8-azabicyclo[3.2.1]octan-8-carbonyl)-3H-1,4-benzoxazepin-5-one]: 6.00 to 7.00.
Regarding `O=C(c1ccc2c(c1)OCCN(C[C@H](O)CN1CCc3ccccc3C1)C2=O)N1CCCC(F)C1` (stereo partly drawn) [Example 194, 4-[(2R)-3-(3,4-dihydro-1H-isoquinolin-2-yl)-2-hydroxy-propyl]-8-(3-fluoropiperidine-1-carbonyl)-2,3-dihydro-1,4-benzoxazepin-5-one], the negative-log IC50 (pIC50) was 6.00 to 7.00.
Next, `O=C1c2ccc(OCc3ccncc3F)cc2OCCN1C[C@H](O)CN1CCc2ccccc2C1` [Example 62, 4-[(2R)-3-(3,4-dihydro-1H-isoquinolin-2-yl)-2-hydroxy-propyl]-8-[(3-fluoro-4-pyridyl)methoxy]-2,3-dihydro-1,4-benzoxazepin-5-one]: 7.00 to 9.00.
The compound `O=C1c2ccc(CN3CC4CCCC4C3)cc2OCCN1C[C@H](O)CN1CCc2ccccc2C1` (stereo partly drawn) [Example 34, 8-(3,3a,4,5,6,6a-hexahydro-1H-cyclopenta[c]pyrrol-2-ylmethyl)-4-[(2R)-3-(3,4-dihydro-1H-isoquinolin-2-yl)-2-hydroxy-propyl]-2,3-dihydro-1,4-benzoxazepin-5-one] had a pIC50 of 7.00 to 9.00.
Next, `Cc1ccc2c(c1)OCCN(C[C@H](O)CN1CCc3ccccc3C1)C2=O` [Example 10, 4-[(2R)-3-(3,4-dihydro-1H-isoquinolin-2-yl)-2-hydroxy-propyl]-8-methyl-2,3-dihydro-1,4-benzoxazepin-5-one]: 6.00 to 7.00; `CC1(C)CN(C[C@H](O)CN2CCc3ccccc3C2)C(=O)c2ccc(OC3CN(C=O)C3)cc2O1` [Example 168, 3-[[4-[(2R)-3-(3,4-dihydro-1H-isoquinolin-2-yl)-2-hydroxy-propyl]-2,2-dimethyl-5-oxo-3H-1,4-benzoxazepin-8-yl]oxy]azetidin-1-carbaldehyde]: 7.00 to 9.00.
